Laboratory results reported in PMC3189488 (British journal of haematology, 2010).

Legend:
[1] = target: T1, human HDAC6 (Homo sapiens, UniProt Q9UBN7); test: HDAC enzyme assay in vitro, HDAC6; assay type: biochemical; conditions: cell-free, purified enzyme; Fig S1
T1 sequence (Q9UBN7 1-1215): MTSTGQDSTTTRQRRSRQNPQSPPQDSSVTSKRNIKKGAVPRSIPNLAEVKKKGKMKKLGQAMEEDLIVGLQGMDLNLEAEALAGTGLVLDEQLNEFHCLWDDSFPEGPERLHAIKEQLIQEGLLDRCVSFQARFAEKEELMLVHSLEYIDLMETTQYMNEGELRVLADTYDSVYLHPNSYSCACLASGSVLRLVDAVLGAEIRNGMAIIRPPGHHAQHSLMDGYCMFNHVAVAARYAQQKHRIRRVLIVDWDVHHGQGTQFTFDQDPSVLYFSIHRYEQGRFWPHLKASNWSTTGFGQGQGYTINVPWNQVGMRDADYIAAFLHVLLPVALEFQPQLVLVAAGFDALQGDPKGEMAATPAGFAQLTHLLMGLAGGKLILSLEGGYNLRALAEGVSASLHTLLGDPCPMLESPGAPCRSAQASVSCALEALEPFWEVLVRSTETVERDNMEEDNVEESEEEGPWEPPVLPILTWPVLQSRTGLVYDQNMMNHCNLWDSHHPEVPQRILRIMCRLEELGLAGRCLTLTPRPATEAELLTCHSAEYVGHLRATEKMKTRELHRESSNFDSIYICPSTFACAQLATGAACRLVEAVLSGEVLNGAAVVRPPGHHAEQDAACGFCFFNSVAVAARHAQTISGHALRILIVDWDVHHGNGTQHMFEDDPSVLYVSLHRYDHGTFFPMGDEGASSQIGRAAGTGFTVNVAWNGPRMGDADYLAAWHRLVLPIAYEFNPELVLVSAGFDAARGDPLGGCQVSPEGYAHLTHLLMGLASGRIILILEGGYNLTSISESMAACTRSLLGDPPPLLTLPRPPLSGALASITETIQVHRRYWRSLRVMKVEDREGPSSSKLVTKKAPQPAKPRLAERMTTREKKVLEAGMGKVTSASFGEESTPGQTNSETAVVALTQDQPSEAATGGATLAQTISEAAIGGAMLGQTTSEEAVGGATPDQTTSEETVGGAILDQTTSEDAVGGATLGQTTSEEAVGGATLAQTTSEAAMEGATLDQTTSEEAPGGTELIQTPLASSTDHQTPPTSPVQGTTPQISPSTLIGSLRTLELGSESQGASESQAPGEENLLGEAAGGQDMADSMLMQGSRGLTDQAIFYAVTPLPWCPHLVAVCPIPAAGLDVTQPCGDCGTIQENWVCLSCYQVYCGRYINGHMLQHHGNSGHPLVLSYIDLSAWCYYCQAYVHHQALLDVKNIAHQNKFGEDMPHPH

[2] = system: HD-LM2 cells; test: Apoptosis by annexin-V/propidium iodide FACS, HD-LM2; assay type: cell-based, human; conditions: 1 μmol/l, 48 h
[3] = system: L428 cells; test: Apoptosis by annexin-V/propidium iodide FACS, L428; assay type: cell-based, human; conditions: 1 μmol/l, 48 h
[4] = system: KM-H2 cells; test: Apoptosis by annexin-V/propidium iodide FACS, KM-H2; assay type: cell-based, human; conditions: 1 μmol/l, 48 h
[5] = system: TNF-α; test: TNF-α secretion in HL cell supernatants by ELISA; assay type: cell-based, human; conditions: within 24 h of incubation
[6] = system: HDAC6; conditions: ref Fournel et al, 2008; Gloghini et al, 2009; cited from earlier work
[7] = target: T2, human HDAC8 (Homo sapiens, UniProt Q9BY41); test: HDAC enzyme assay in vitro, HDAC8; conditions: cell-free, purified enzyme
T2 sequence (Q9BY41 1-377): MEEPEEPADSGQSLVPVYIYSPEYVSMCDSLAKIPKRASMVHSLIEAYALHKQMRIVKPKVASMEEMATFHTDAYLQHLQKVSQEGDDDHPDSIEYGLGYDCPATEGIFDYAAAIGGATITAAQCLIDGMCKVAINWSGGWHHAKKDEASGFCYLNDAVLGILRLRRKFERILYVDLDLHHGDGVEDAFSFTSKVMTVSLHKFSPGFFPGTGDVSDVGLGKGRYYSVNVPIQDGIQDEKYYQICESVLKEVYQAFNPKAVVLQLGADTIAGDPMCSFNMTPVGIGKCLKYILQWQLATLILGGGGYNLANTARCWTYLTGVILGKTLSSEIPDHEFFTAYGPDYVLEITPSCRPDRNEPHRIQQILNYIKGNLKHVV

[8] = target: human HDAC3 with human NcoR2 (Homo sapiens, UniProt O15379); test: HDAC enzyme assay in vitro, HDAC3; conditions: cell-free, purified enzyme
[9] = system: HDACs 1-10; test: HDAC enzyme assay in vitro, purified HDAC 1-10 isoforms; conditions: positive control
[10] = system: HL cell lines; test: Combination of MGCD0103 with proteasome inhibitors in HL cell lines; assay type: cell-based, human; conditions: 48 h, combination index <1 indicates synergy
[11] = system: NF-kB; test: p65 NF-kB nuclear translocation by Western blot; assay type: cell-based, human; conditions: bortezomib 20 nmol/l with MGCD0103 1 μmol/l, 24 h

human HDAC3 with human NcoR2, sequence (O15379 whole entry, canonical isoform): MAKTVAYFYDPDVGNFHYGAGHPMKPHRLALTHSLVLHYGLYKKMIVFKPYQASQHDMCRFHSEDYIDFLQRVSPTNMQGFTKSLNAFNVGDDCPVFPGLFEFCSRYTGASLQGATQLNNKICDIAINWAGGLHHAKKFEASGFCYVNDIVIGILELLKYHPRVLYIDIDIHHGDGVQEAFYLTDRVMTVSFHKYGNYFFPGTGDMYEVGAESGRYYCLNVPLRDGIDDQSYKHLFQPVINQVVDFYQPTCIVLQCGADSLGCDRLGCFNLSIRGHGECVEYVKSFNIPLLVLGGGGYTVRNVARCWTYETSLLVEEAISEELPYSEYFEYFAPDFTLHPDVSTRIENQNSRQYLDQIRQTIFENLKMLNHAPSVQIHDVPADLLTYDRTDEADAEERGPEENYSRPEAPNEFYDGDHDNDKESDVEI
human HDAC3 with human NcoR2, sequence (Q9Y618 395-489 partner limits assumed): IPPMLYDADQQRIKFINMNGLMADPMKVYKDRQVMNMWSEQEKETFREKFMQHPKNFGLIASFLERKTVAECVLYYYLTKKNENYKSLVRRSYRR

| Compound | percentage of apoptotic cells [2] | percentage of apoptotic cells [3] | percentage of apoptotic cells [4] | inhibition of HDAC8 activity [7] | combination effect with MGCD0103 [10] | further results |
| --- | --- | --- | --- | --- | --- | --- |
| Nc1ccccc1NC(=O)c1ccc(CNc2nccc(-c3cccnc3)n2)cc1 [MGCD0103] | 59% | 72% | 69% | also inhibited the activity | – | effect on HDAC6 activity [1]: no effect; TNF-α levels in supernatants [5]: profoundly increased; effect on HDAC6 [6]: no effect |
| O=C(CCCCCCC(=O)Nc1ccccc1)NO [vorinostat, suberoylanilide hydroxamic] | 21% | 15% | 13.8% | had activity | – | inhibition of HDAC3 activity [8]: had activity |
| Trichostatin A [Trichostatin-A] | – | – | – | – | – | potency against HDACs 1-10 compared with MGCD0103 and vorinostat [9]: higher potency |
| C[C@@]12OC(=O)[C@]1([C@@H](O)[C@@H]1C=CCCC1)NC(=O)[C@@H]2CCCl [NPI0052] | – | – | – | – | synergistic activity | – |
| CC(C)C[C@H](NC(=O)[C@H](Cc1ccccc1)NC(=O)c1cnccn1)B(O)O [bortezomib] | – | – | – | – | synergistic antiproliferative effect | effect on MGCD0103-induced NF-kB activation [11]: inhibited MGCD0103-induced NF-kB activation |
